From patent US12064444B2, “Application of tannic acid in preparation of medicament against respiratory viruses” (priority 2020, dated 2024)

System: SARS-CoV-2 virus

Row | Structure (SMILES) | SI (Selection Index = TC50/IC50)
1 | CCC(CC)COC(=O)[C@H](C)N[P@](=O)(OC[C@H]1O[C@@](C#N)(c2ccc3c(N)ncnn23)[C@H](O)[C@@H]1O)Oc1ccccc1 [Remdesivir] | 162.21
2 | O=C(OC[C@H]1O[C@@H](OC(=O)c2cc(O)c(O)c(OC(=O)c3cc(O)c(O)c(O)c3)c2)[C@H](OC(=O)c2cc(O)c(O)c(OC(=O)c3cc(O)c(O)c(O)c3)c2)[C@@H](OC(=O)c2cc(O)c(O)c(OC(=O)c3cc(O)c(O)c(O)c3)c2)[C@@H]1OC(=O)c1cc(O)c(O)c(OC(=O)c2cc(O)c(O)c(O)c2)c1)c1cc(O)c(O)c(OC(=O)c2cc(O)c(O)c(O)c2)c1 [Tannic acid, tannic acid] | 7343.75
